Experiments:
[1] = target: T1, Gal4-RORγ-LBD (Homo sapiens, UniProt P51449); test: Gal4-RORγ Luciferase Reporter Assay in HEK-293T Cells; format: cell-based; settings: HEK-293 cells; for Gal4-RORγ Assay Max Response: maximum response
T1 construct: expressed in transfected cells
T1 sequence (P51449 269-508 limits assumed): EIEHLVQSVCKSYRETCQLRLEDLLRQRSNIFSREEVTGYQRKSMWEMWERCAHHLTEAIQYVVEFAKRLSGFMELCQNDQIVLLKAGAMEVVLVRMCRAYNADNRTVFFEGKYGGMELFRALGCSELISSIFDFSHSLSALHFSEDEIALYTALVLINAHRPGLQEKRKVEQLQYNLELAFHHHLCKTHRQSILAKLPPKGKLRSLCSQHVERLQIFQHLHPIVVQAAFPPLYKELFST
Procedure, shortened: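 HEK-293 cells were co-transfected with Gal4-RORγ-LBD and a Gal4-luciferase reporter, then exposed overnight at 37 °C to compounds with […] ursolic acid present (0.2% DMSO). Luminescence was read with One-Glo after 10 min at RT, untreated signal was set as 100, and Max Response was taken as the upper plateau of a 4-parameter logistic fit.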

[2] = target: T2, RORγ-LBD (Homo sapiens, UniProt P51449); test: RORγ-Ligand Binding Domain (LBD) TR-FRET Assay; format: biochemical; settings: for TR-FRET Assay Max Response: maximum response;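 as to TR-FRET Assay Max Response: 665/615 nm signal ratio set to 100 without ursolic acid or test compound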
T2 construct: made in house; host or cells: SF9 cells (baculovirus); used as diluted lysate
T2 sequence (P51449 269-508 limits assumed): T1 sequence (P51449 269-508 limits assumed)
Procedure, shortened: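 This TR-FRET coactivator assay pairs baculovirus-expressed His-RORγ-LBD (~3 nM final) with biotin-SRC1 LXXLL peptide at 200 nM final in pH 7.0 Tris/KCl/EDTA/DTT/BSA buffer.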

[3] = luciferase reporter, in presence of ursolic acid
[4] = luciferase reporter, with ursolic acid
[5] = ursolic acid present, luciferase readout
[6] = with 2 μM ursolic acid (RORγ antagonist), highest test concentration 10 μM

Row | Structure (SMILES) | EC50 [1, 3] | EC50 ([2]; RORγ-LBD TR-FRET assay) | EC50 [1, 4] | EC50 ([2]; RORγ-LBD TR-FRET) | other results
1 | C/C(=C\c1ccc2c(c1)N(S(=O)(=O)c1cccc(C(F)(F)F)c1)C[C@H](CCNS(=O)(=O)C1CC1)O2)c1c(F)cccc1Cl [Example 116A, (S,E)-N-(2-(6-(2-(2-chloro-6-fluorophenyl)prop-1-en-1-yl)-4-((3-(trifluoro-methyl)phenyl)-sulfonyl)-3,4-dihydro-2H-benzo[b][1,4]oxazin-2-yl)ethyl)cyclopropane-sulfonamide] | < 500 nM | < 500 nM |  |  | Gal4-RORγ Assay Max Response [1, 3]: ** (a value in the range of greater than 90 to 150); TR-FRET Assay Max Response ([2]; RORγ-LBD TR-FRET assay): *** (a value in the range of greater than 150 to 200)
2 | COC(=O)CC[C@H]1CN(S(=O)(=O)c2cccc(C(F)(F)F)c2)c2cc(/C=C(\C)c3ccccc3C)ccc2O1 [Example 86AL, (S,E)-methyl 3-(6-(2-(o-tolyl)prop-1-en-1-yl)-4-((3-(trifluoromethyl)-phenyl)sulfonyl)-3,4-dihydro-2H-benzo[b][1,4]oxazin-2-yl)propanoate] |  |  | 500 to 5000 nM | < 500 nM | 
3 | CCOc1nn(CC)cc1S(=O)(=O)N1C[C@H](CCC(=O)O)Oc2ccc(/C=C/c3ccc(Cl)cc3)cc21 [Example 89DB, (S,E)-3-(6-(4-chlorostyryl)-4-((3-ethoxy-1-ethyl-1H-pyrazol-4-yl)sulfonyl)-3,4-dihydro-2H-benzo[b][1,4]oxazin-2-yl)propanoic acid] |  |  | > 10000 nM | > 10000 nM | 
4 | C/C(=C\c1ccc2c(c1)N(S(=O)(=O)c1cccc(C(F)(F)F)c1)C[C@@H](N)C2)c1c(F)cccc1Cl [Example 166, (S,E)-7-(2-(2-Chloro-6-fluorophenyl)prop-1-en-1-yl)-1-((3-(trifluoromethyl)phenyl)sulfonyl)-1,2,3,4-tetrahydroquinolin-3-amine] | 500 to 5000 nM | < 500 nM |  |  | Gal4-RORγ Assay Max Response [1, 3]: ** (a value in the range of greater than 90 to 150); TR-FRET Assay Max Response ([2]; RORγ-LBD TR-FRET assay): *** (a value in the range of greater than 150 to 200)
5 | COC(=O)CC[C@H]1CN(S(=O)(=O)c2cccc(OC(F)F)c2)c2cc(/C=C/c3ccccn3)ccc2O1 [Example 89D, (S,E)-methyl 3-(4-((3-(difluoromethoxy)phenyl)sulfonyl)-6-(2-(pyridin-2-yl)vinyl)-3,4-dihydro-2H-benzo[b][1,4]oxazin-2-yl)propanoate] |  |  | 500 to 5000 nM | < 500 nM | 
6 | COC(=O)CC[C@H]1CN(S(=O)(=O)c2cccc(C(F)(F)F)c2)c2cc(C=C3CCCCC3)ccc2O1 [Example 90, Methyl (S)-3-(6-(cyclohexylidenemethyl)-4-((3-(trifluoromethyl)phenyl)sulfonyl)-3,4-dihydro-2H-benzo[b][1,4]oxazin-2-yl)propanoate] |  |  | 500 to 5000 nM | < 500 nM | 
7 | N[C@@H]1Cc2ccc(OCc3c(F)cccc3Cl)cc2N(S(=O)(=O)c2cccc(C(F)(F)F)c2)C1 [Example 159, (R)-7-((2-Chloro-6-fluorobenzyl)oxy)-1-((3-(trifluoromethyl)phenyl)sulfonyl)-1,2,3,4-tetrahydroquinolin-3-amine] | 500 to 5000 nM | < 500 nM |  |  | 
8 | COc1cc(S(=O)(=O)N2C[C@H](CNC(=O)[C@H]3CC[C@H](C(=O)O)CC3)Oc3ccc(/C=C(\C)c4c(F)cccc4Cl)cc32)ccc1F [Example 135C, (1S,4r)-4-((((S)-6-((E)-2-(2-chloro-6-fluoro-phenyl)prop-1-en-1-yl)-4-((4-fluoro-3-methoxy-phenyl)sulfonyl)-3,4-dihydro-2H-benzo[b][1,4]oxazin-2-yl)methyl)carbamoyl)-cyclohexane-1-carboxylic acid] | 500 to 5000 nM | < 500 nM |  |  | Gal4-RORγ Assay Max Response [1, 3]: * (a value in the range of 30 to 90); TR-FRET Assay Max Response ([2]; RORγ-LBD TR-FRET assay): *** (a value in the range of greater than 150 to 200)
9 | C[C@H]1CN(S(=O)(=O)c2cc(C(F)(F)F)cnc2OCCO)c2cc(/C=C/c3c(Cl)cccc3C(F)(F)F)ccc2O1 [Example 89EX, (S,E)-2-((3-((6-(2-chloro-6-(trifluoromethyl)styryl)-2-methyl-2,3-dihydro-4H-benzo[b][1,4]oxazin-4-yl)sulfonyl)-5-(trifluoromethyl)-pyridin-2-yl)oxy)ethan-1-ol] |  |  | 500 to 5000 nM | < 500 nM | 
10 | O=C(O)CO[C@@H]1Cc2ccc(OCc3c(F)cccc3Cl)cc2N(S(=O)(=O)c2cccc(C(F)(F)F)c2)C1 [Example 157, (R)-2-((7-((2-Chloro-6-fluorobenzyl)oxy)-1-((3-(trifluoromethyl)phenyl)sulfonyl)-1,2,3,4-tetrahydroquinolin-3-yl)oxy)acetic acid] | 500 to 5000 nM | < 500 nM |  |  | Gal4-RORγ Assay Max Response [1, 3]: ** (a value in the range of greater than 90 to 150); TR-FRET Assay Max Response ([2]; RORγ-LBD TR-FRET assay): ** (a value in the range of greater than 90 to 150)
11 | C/C(=C\c1ccc2c(c1)N(S(=O)(=O)c1c(Cl)nc3sccn13)C[C@H](CCC(=O)O)O2)c1c(F)cccc1Cl [Example 86U, (S,E)-3-(6-(2-(2-chloro-6-fluorophenyl)prop-1-en-1-yl)-4-((6-chloroimidazo[2,1-b]thiazol-5-yl)sulfonyl)-3,4-dihydro-2H-benzo[b][1,4]oxazin-2-yl)propanoic acid] |  |  | 500 to 5000 nM | < 500 nM | 
12 | CCOc1ncc(Cl)cc1S(=O)(=O)N1C[C@H](CCC(=O)OC)Oc2ccc(/C=C/c3c(Cl)cccc3C(F)(F)F)cc21 [Example 89CY, methyl (S,E)-3-(4-((5-chloro-2-ethoxypyridin-3-yl)sulfonyl)-6-(2-chloro-6-(trifluoromethyl)-styryl)-3,4-dihydro-2H-benzo-[b][1,4]oxazin-2-yl)propanoate] |  |  | 500 to 5000 nM | < 500 nM | 
13 | C/C(=C\c1ccc2c(c1)N(S(=O)(=O)c1cccc(C(F)(F)F)c1)[C@H](C)[C@H](N)C2)c1c(F)cccc1Cl [Example 147, (2R,3R)-7-((E)-2-(2-Chloro-6-fluorophenyl)prop-1-en-1-yl)-2-methyl-1-((3-(trifluoromethyl)phenyl)sulfonyl)-1,2,3,4-tetrahydroquinolin-3-amine] | 500 to 5000 nM | < 500 nM |  |  | Gal4-RORγ Assay Max Response [1, 3]: ** (a value in the range of greater than 90 to 150); TR-FRET Assay Max Response ([2]; RORγ-LBD TR-FRET assay): *** (a value in the range of greater than 150 to 200)
14 | CCOC(=O)[C@@H]1Cc2ccc(OCc3c(F)cccc3Cl)cc2N(S(=O)(=O)c2ccc(F)c(OC)c2)[C@@H]1C |  |  |  |  | EC50 [1, 5]: 500 to 5000 nM; EC50 [2, 6]: < 500 nM
15 | C/C(=C\c1ccc2c(c1)N(S(=O)(=O)c1cccc(C(F)(F)F)c1C)C[C@H](CCC(=O)O)O2)c1c(F)cccc1Cl [Example 86AM, (S,E)-3-(6-(2-(2-chloro-6-fluorophenyl)prop-1-en-1-yl)-4-((2-methyl-3-(trifluoromethyl)-phenyl)sulfonyl)-3,4-dihydro-2H-benzo[i,4]oxazin-2-yl)propanoic acid] |  |  | 500 to 5000 nM | < 500 nM | 
16 | COc1nn2c(c1S(=O)(=O)N1C[C@H](CCC(=O)O)Oc3ccc(/C=C(\C)c4c(F)cccc4Cl)cc31)CCCC2 [Example 86K, (S,E)-3-(6-(2-(2-chloro-6-fluorophenyl)prop-1-en-1-yl)-4-((2-methoxy-4,5,6,7-tetrahydropyrazolo[1,5-a]pyridin-3-yl)sulfonyl)-3,4-dihydro-2H-benzo[b][1,4]oxazin-2-yl)propanoic acid] |  |  | < 500 nM | < 500 nM | 
17 | CCOc1nn(CC)cc1S(=O)(=O)N1C[C@H](CCC(=O)O)Oc2ccc(/C=C(\C)c3c(Cl)cccc3C(F)(F)F)cc21 [Example 86AW, (S,E)-3-(6-(2-(2-chloro-6-(trifluoromethyl)phenyl)prop-1-en-1-yl)-4-((3-ethoxy-1-ethyl-1H-pyrazol-4-yl)sulfonyl)-3,4-dihydro-2H-benzo[b][1,4]oxazin-2-yl)propanoic acid] |  |  | < 500 nM | < 500 nM | 
18 | COC(=O)CC[C@H]1CN(S(=O)(=O)c2cc(C(F)(F)F)cnc2OCCCO)c2cc(/C=C/c3c(F)cccc3Cl)ccc2O1 [Example 89FD, methyl (S,E)-3-(6-(2-chloro-6-fluorostyryl)-4-((2-(3-hydroxypropoxy)-5-(trifluoromethyl)pyridin-3-yl)sulfonyl)-3,4-dihydro-2H-benzo[b][1,4]-oxazin-2-yl)propanoate] |  |  | 500 to 5000 nM | < 500 nM | 
19 | COC(=O)CCC[C@H]1CN(S(=O)(=O)c2cc(C(F)(F)F)cnc2OCCO)c2cc(/C=C/c3c(F)cccc3Cl)ccc2O1 [Example 195C, methyl (S,E)-4-(6-(2-chloro-6-fluorostyryl)-4-((2-(2-hydroxyethoxy)-5-(trifluoro-methyl)pyridin-3-yl)sulfonyl)-3,4-dihydro-2H-benzo[b][1,4]-oxazin-2-yl)butanoate] |  |  |  |  | EC50 [1, 5]: 500 to 5000 nM; EC50 [2, 6]: < 500 nM
20 | COc1cc(S(=O)(=O)N2c3cc(OCc4c(F)cccc4Cl)ccc3C=C(CNC(C)=O)[C@H]2C)ccc1F [Example 140, (R)—N-((7-((2-Chloro-6-fluorobenzyl)oxy)-1-((4-fluoro-3-methoxyphenyl)sulfonyl)-2-methyl-1,2-dihydroquinolin-3-yl)methyl)acetamide] | < 500 nM | < 500 nM |  |  | 

Source: US9896441B2 (Lycera Corporation, priority 2014, dated 2018)
